Measurements from patent US20130072534A1 (LABORATORIOS DEL DR. ESTEVE, S.A., priority 2009, published 2013).

System: formalin-induced nociceptive behaviour
Experiment: Formalin test in mice (phase II licking/biting of the injected paw)
Assay type: in vivo, Male CD-1 mice
Conditions: i.p.; for efficacy of analgesic effect (in words): formalin test
Method: To assess the reliability of the efficacy and potency of the compounds and combinations tested, the nociceptive response was assessed by the formalin test. The behaviour analysed was the total time spent in licking and biting of the injected paw measured during the 15-30 min period (phase II) (Dubuisson D., et al. Pain 1977, 4, 161 and Rosland et al., Pain 1990, 42, 235).
All drugs prepared at various concentrations were dissolved in 0.5% hydroxypropyl methylcellulose in distilled water and coadministered in a volume of 10 ml/kg per mice through the intraperitoneal (i.p.) route. Control animals received the same volume of vehicle.
Male CD-1 mice weighing between 20 and 25 g (Charles River Laboratories) are used for all the experiments. The animals were housed in a temperature-controlled room (21±1° C.) with air exchange every 20 min and an automatic 12-h light/dark cycle (light from 08.00 to 20.00 h). They were fed a standard laboratory diet and tap water ad libitum until the beginning of the experiments. The experiments were performed during the light phase (09.00-15.00 h). Naive animals were used throughout.
A concentrated formalin solution was diluted with saline to the appropriate concentration (2.5%). Formalin test was performed as described in Rosland et al., Pain 1990, 42, 235, with slight modifications. 20 microliters of the formalin solution was injected subcutaneously (s.c.) into the dorsal surface of the right hind paw of the mouse, using a Hamilton microsyringe with a 301/2-gauge needle. The nociceptive behaviour (licking and/or biting) was recorded from 15 to 35 min after formalin injection as an indicator of the pain response.
The method is based on the comparison of the effect of several doses of a combination at a determined ratio with respect to the effects achieved using different doses of each of the two agents. […] The theoretical additive dose (Zadd) for a combination was then calculated and compared with the experimental ED50 of the combination (Zt) as described in Tallarida, Drug synergism 2001, 298, 865-872. […]

Cc1ccc(-c2cc(C(F)(F)F)nn2-c2ccc(S(N)(=O)=O)cc2)cc1 [celecoxib, 4-[5-(4-methylphenyl)-3-(trifluoromethyl)pyrazol-1-yl]benzenesulfonamide]
maximum efficacy (analgesic effect) (formalin test (2.5% formalin s.c. into hind paw)): 45.78% | efficacy of analgesic effect (in words): ceiling effect

COc1ccc(C(CN(C)C)C2(O)CCCCC2)cc1 (racemic) [Venlafaxine, (rac)-1-[2-dimethylamino-1-(4-methoxyphenyl)-ethyl]cyclohexanol]
efficacy of analgesic effect (in words): full efficacy
